Measurements reported in patent publication US7776858B2, “Methods of treatment of chronic pain using eszopiclone” (Sepracor Inc., priority 2004, dated 2010).

How the values were obtained:
mice = experiment: Antagonism of oxotremorine induced salivation; type: in vivo; conditions: doses up to 300 mg/kg, p.o.
Protocol: Eszopiclone was evaluated for antimuscarinic activity in vivo.

conscious dogs = experiment: Dose escalation safety study, cardiovascular and respiratory parameters after acute intravenous administration
Protocol: To establish the safety of eszopiclone, a dose escalation study was carried out. Cardiovascular and respiratory parameters were evaluated in conscious dogs following acute intravenous administration of (R)-, (S)- or racemic zopiclone at three doses (3, 5 and 12 mg/kg).

[1] = acute intravenous, 3, 5 and 12 mg/kg

## CN1CCN(C(=O)O[C@@H]2c3nccnc3C(=O)N2c2ccc(Cl)cn2)CC1 [(R)-Zopiclone]
mice
  antagonism of oxotremorine induced salivation: neither (R)-, (S)-, nor racemic zopiclone significantly antagonized
Conscious dogs; acute intravenous, 12 mg/kg
  hemodynamic effect: did not produce a consistent hemodynamic effect
Conscious dogs; [1]
  Blood gases and blood chemistries (pH, pCO2, pO2, hematocrit, and lactate): remained unaffected
  cardiotoxicity by electrocardiogram (ECG): No evidence of cardiotoxicity
